Reference: patent publication US20190119193A1, “COMPOSITION FOR REGULATING PLANT GROWTH, METHOD FOR TREATING PLANTS THEREWITH, AND ACTIVE INGREDIENT THEREOF” (Ivan Aleksandrovich Starikov, priority 2016, published 2019)

Tested on: cucumber seeds (“Nezhinsky” variety)
Assay: Laboratory tests of DMOA and DEOA for cucumber seeds
Format: in vivo
Conditions: for Germinative energy: day 3; for Germinative capacity / Number of lateral roots / Sprout height / Taproot length: day 7
Experimental: After that DMOA and DEOA were dissolved in dimethyl sulfoxide to give solutions of 10 g/L concentration, then water was added to give aqueous solutions of DMOA with concentrations of 5.5·10^−5 M, 5.5·10^−6 M, 5.5·10^−7 M, 5.5·10^−8 M, 5.5·10^−9 M and DEOA with concentrations of 4.8·10^−5 M, 4.8·10^−6 M, 4.8·10^−7 M, 4.8·10^−8 M, 4.8·10^−9 M.
The obtained aqueous solutions of DMOA and DEOA were tested in the Scientific Center of Soil-Ecological Reasearch of the Federal State-Funded Educational Institution of Higher Education “Russian State Agrarian University—Moscow Agricultural Academy named after K. A. Timiryazev” (Moscow, 2015) according to the method described by T. A. Sergeeva (Method of laboratory testing of herbicides, Plant protection, 1963, No. 2, pp. 42-43). The primary laboratory screening of DMOA and DEOA was carried out on the seeds of five different crops: sunflower of “Voronezh 638” variety, soybean of “Vilana” variety, alfalfa of “Vega” variety, cucumber of “Nezhinsky” variety and tomato of “Volgogradets” variety.
Water was used as a reference.
A single experiment was carried out in a Petri dish. A circle of filter paper was laid at the bottom of the dish and treated with 5 ml of the work solution selected for the experiment. After that 25 seeds were uniformly laid on the surface of the treated filter paper. The Petri dish was kept at a temperature of 21-23° C. with illumination by fluorescent lamps for 7 days. The fourfold replication of the experiment within a single variant was applied.
The experiment identified the number and percentage of normally germinated seeds on day 3 (germinative energy) and on day 7 (germinative capacity) after the beginning of the experiment. On day 7 the main biometric parameters were also measured: sprout height (mm), taproot length (mm) and number of lateral roots (pcs).
The results were processed with the method of variance analysis with the help of STRAZ software in order to get the LSD0.05 (least significant difference between the test results on 5% significance level).

Q: With “Sodium salt of dimethyl ester of oxaloacetic acid [DMOA]” as the compound, how does the Germinative energy (5.5 · 10^−5 M) read?
A: 86%

Q: What about the Germinative capacity (5.5 · 10^−5 M) of the same compound?
A: 82%

Q: What about the “Number of lateral roots” value (5.5 · 10^−5 M) of the same compound?
A: 11.9 pcs.

Q: What about the Sprout height (5.5 · 10^−5 M) of the same compound?
A: 19.0 mm

Q: What about the Taproot length (5.5 · 10^−5 M) of the same compound?
A: 74.2 mm

Q: And the Germinative energy (5.5 · 10^−6 M)?
A: 88%

Q: And the Germinative capacity (5.5 · 10^−6 M)?
A: 91%

Q: What about the “Number of lateral roots” value (5.5 · 10^−6 M) of the same compound?
A: 12.3 pcs.

Q: What about the Sprout height (5.5 · 10^−6 M) of the same compound?
A: 15.9 mm

Q: What about the Taproot length (5.5 · 10^−6 M) of the same compound?
A: 75.6 mm

Q: What about the Germinative energy (5.5 · 10^−7 M) of the same compound?
A: 85%

Q: And the Germinative capacity (5.5 · 10^−7 M)?
A: 94%

Q: And the “Number of lateral roots” value (5.5 · 10^−7 M)?
A: 13.7 pcs.

Q: And the Sprout height (5.5 · 10^−7 M)?
A: 17.7 mm

Q: And the Taproot length (5.5 · 10^−7 M)?
A: 78.1 mm

Q: And the Germinative energy (5.5 · 10^−8 M)?
A: 86%

Q: And the Germinative capacity (5.5 · 10^−8 M)?
A: 78%

Q: And the “Number of lateral roots” value (5.5 · 10^−8 M)?
A: 13.5 pcs.

Q: And the Sprout height (5.5 · 10^−8 M)?
A: 17.1 mm

Q: And the Taproot length (5.5 · 10^−8 M)?
A: 74.8 mm

Q: What about the Germinative energy (5.5 · 10^−9 M) of the same compound?
A: 82%

Q: And the Germinative capacity (5.5 · 10^−9 M)?
A: 95%

Q: And the “Number of lateral roots” value (5.5 · 10^−9 M)?
A: 12.9 pcs.

Q: And the Sprout height (5.5 · 10^−9 M)?
A: 18.2 mm

Q: And the Taproot length (5.5 · 10^−9 M)?
A: 82.5 mm

Q: With `CCOC(=O)C=C([O-])C(=O)OCC.[Na+]` [DEOA, sodium salt of diethyl ester of oxaloacetic acid] as the compound, how does the Germinative energy (4.8 · 10^−5 M) read?
A: 84%

Q: What about the Germinative capacity (4.8 · 10^−5 M) of the same compound?
A: 88%

Q: And the “Number of lateral roots” value (4.8 · 10^−5 M)?
A: 14.3 pcs.

Q: And the Sprout height (4.8 · 10^−5 M)?
A: 27.8 ↑↑ mm

Q: And the Taproot length (4.8 · 10^−5 M)?
A: 83.7 mm

Q: What about the Germinative energy (4.8 · 10^−6 M) of the same compound?
A: 80%

Q: What about the Germinative capacity (4.8 · 10^−6 M) of the same compound?
A: 85%

Q: And the “Number of lateral roots” value (4.8 · 10^−6 M)?
A: 14.4 pcs.

Q: And the Sprout height (4.8 · 10^−6 M)?
A: 22.2 mm

Q: And the Taproot length (4.8 · 10^−6 M)?
A: 88.3 ↑ mm

Q: And the Germinative energy (4.8 · 10^−7 M)?
A: 84%

Q: And the Germinative capacity (4.8 · 10^−7 M)?
A: 88%

Q: What about the “Number of lateral roots” value (4.8 · 10^−7 M) of the same compound?
A: 15.5 ↑ pcs.

Q: What about the Sprout height (4.8 · 10^−7 M) of the same compound?
A: 22.3 mm

Q: And the Taproot length (4.8 · 10^−7 M)?
A: 89.3 ↑ mm

Q: And the Germinative energy (4.8 · 10^−8 M)?
A: 88%

Q: And the Germinative capacity (4.8 · 10^−8 M)?
A: 95%

Q: What about the “Number of lateral roots” value (4.8 · 10^−8 M) of the same compound?
A: 12.4 pcs.

Q: What about the Sprout height (4.8 · 10^−8 M) of the same compound?
A: 19.3 mm

Q: And the Taproot length (4.8 · 10^−8 M)?
A: 79.8 mm

Q: And the Germinative energy (4.8 · 10^−9 M)?
A: 91%

Q: What about the Germinative capacity (4.8 · 10^−9 M) of the same compound?
A: 93%

Q: And the “Number of lateral roots” value (4.8 · 10^−9 M)?
A: 13.7 pcs.

Q: And the Sprout height (4.8 · 10^−9 M)?
A: 21.6 mm

Q: And the Taproot length (4.8 · 10^−9 M)?
A: 93.8 ↑↑ mm
